Measured values reported in patent publication US10179761B2, “Compounds, pharmaceutical composition and their use in treating neurodegenerative diseases” (UNIVERSITE DE LILLE 2 DROIT ET SANTE, priority 2014, dated 2019).
Values joined by “and” are separate entries in the source; they are usually repeats but may differ in a detail not shown here. Equal values may be shown once. Read-outs that look alike come from different tables or passages of the source.

Assays:
σ1 receptors [1] = biological target: T1, σ1 receptors (Homo sapiens (Human), UniProt Q99720); experiment: σ1 binding assay, Jurkat cell membranes, [3H](+)-pentazocine; settings: selectivity, Ki sigma 2 / Ki sigma 1
Description: (§1) The σ binding assays were performed according to Ganapathy et al. (Ganapathy, M. E.; Prasad, P. D.; Huang, W.; Seth, P.; Leibach, F. H.; Ganapathy, V. Molecular and ligand-binding characterization of the sigma-receptor in the Jurkat human T lymphocyte cell line. J. Pharmacol. Exp. Ther. 1999, 289, 251-260). […] The σ2 binding assay was performed by incubating Jurkat cell membranes ([…] protein per tube) with [^3H]-DTG (25 nM) in presence of (+)-pentazocine (1 μM) to saturate σ1 receptors, and a range of concentrations of tested compounds, at room temperature for 1 hour in 5 mM Tris/HCl buffer (pH=7.4). The final assay volume was 0.5 mL. Binding was terminated by rapid filtration through Wathman GF/B filters, which were then washed with 5×1 mL ice-cold NaCl solution and allowed to dry before bound radioactivity was measured using liquid scintillation counting. Nonspecific binding was determined, in both assays, under similar conditions, but in presence of 10 μM unlabeled haloperidol. Inhibition constants (Ki) were calculated from the IC50 values according to the method of Cheng and Prusoff (Cheng, Y.; Prusoff, W. H. Relationship between the inhibition constant (Ki) and the concentration of inhibitor which causes 50 percent inhibition (IC50) of an enzymatic reaction. Biochem Pharmacol. 1973, 22 (23), 3099-108): […]

σ2 receptors = σ2 receptors (Homo sapiens (Human), UniProt Q5BJF2); experiment: σ2 binding assay, Jurkat cell membranes, [3H]-DTG in presence of (+)-pentazocine; settings: read-out: Sigma 2 Ki
Description: as §1

σ1 receptors [2] = biological target: T1, σ1 receptors; experiment: σ1 binding assay, Jurkat cell membranes, [3H](+)-pentazocine; settings: hydrochloride salts; mean of 2 or 3 independent experiments; Ki from IC50 (Cheng-Prusoff); read-out: Sigma 1 Ki
Male Swiss mice [3] = experiment: Dizocilpine-induced learning deficits: spontaneous alternation in the Y-maze; assay type: in vivo; settings: NE-100 3 mg/kg + dizocilpine 0.15 mg/kg i.p.
Description: (§2) The activity of compound 3.1.10 was evaluated on the prevention of the dizocilpine-induced learning deficits measured using two behavioral tests. The present experiment tested if its anti-amnesic activity could be blocked by pretreatment with the reference sigma-1 receptor antagonist NE-100.
(§3) • Sixty (60) mice were used. Behavioral testing started one week after the arrival of the animals in the AMYLGEN animal facility. • 5 treatment groups were designed and used as follows:
(§4) • Vehicle 1 was physiological saline for dizocilpine, DMSO 2% in water for compound 3.1.10 • Animals were used at day 1 in the Y-maze test and at days 2 and 3 in the passive avoidance test, with training at day 2 and retention at day 3. • Test compounds, compound 3.1.10 and/or NE-100 were administered 10 min before dizocilpine (at 0.15 mg/kg i.p.) or vehicle. • Dizocilpine or vehicle 1 was administered 20 min before the Y-maze test session on day 1. • Dizocilpine or vehicle 1 was administered 20 min before the passive avoidance training session on day 2. Drugs were not injected before the retention session on day 3. • The whole experiment program was performed in a single serie experiment. • Treatments were randomized. 2.1.2. Animals
Male Swiss mice, 6 weeks old and weighing 30-35 g, from JANVIER (Saint Berthevin, France), were housed in groups with access to food and water ad libitum, except during experiments. They were kept in a temperature and humidity controlled animal facility on a 12 h/12 h light:dark cycle (lights on at 7:00 am). […]
Animals were tested for spontaneous alternation performance in the Y-maze, an index of spatial working memory. […] The number of maximum alternations was therefore the total number of arm entries minus two and the percentage of alternation was calculated as: (actual alternations/maximum alternations)×100. […]
All values, except passive avoidance latencies, were expressed as mean±S.E.M. Statistical analyses were performed using two-way ANOVA (F value), with genotype and peptide treatment as independent factors, followed by a Dunn's post-hoc multiple comparison test.

Male Swiss mice [4] = experiment: Dizocilpine-induced learning deficits: step-through passive avoidance test; assay type: in vivo; settings: NE-100 3 mg/kg + dizocilpine 0.15 mg/kg i.p.
Description: as §2, §3, §4
Male Swiss mice, 6 weeks old and weighing 30-35 g, from JANVIER (Saint Berthevin, France), were housed in groups with access to food and water ad libitum, except during experiments. […]
The apparatus is a two-compartments (15×20×15 cm high) box with one illuminated with white polyvinylchloride walls and the other darkened with black polyvinylchloride walls and a grid floor. […] The step-through latency (the latency spent to enter the dark compartment) and the number of vocalizations was recorded. […] The step-through latency was recorded up to 300 s. When the mouse entered the dark compartment or 300 s has elapsed (they were therefore manually placed in it), the escape latency (latency to exit from the dark compartment) was recorded up to 300 s.
They were therefore analyzed using a Kruskal-Wallis non-parametric ANOVA (H value), followed by a Dunn's multiple comparison test.

[5] = hydrochloride salts, mean of 2 or 3 independent experiments, Ki from IC50 (Cheng-Prusoff)

T1 sequence (Q99720 whole entry): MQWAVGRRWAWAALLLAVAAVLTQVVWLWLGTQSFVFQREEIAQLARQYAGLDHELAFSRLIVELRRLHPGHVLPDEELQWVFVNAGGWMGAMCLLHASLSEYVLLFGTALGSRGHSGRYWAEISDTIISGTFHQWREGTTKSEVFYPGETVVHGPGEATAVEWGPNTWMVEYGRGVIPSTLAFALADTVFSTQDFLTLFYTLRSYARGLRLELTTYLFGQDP
Sequence of σ2 receptors (Q5BJF2 whole entry): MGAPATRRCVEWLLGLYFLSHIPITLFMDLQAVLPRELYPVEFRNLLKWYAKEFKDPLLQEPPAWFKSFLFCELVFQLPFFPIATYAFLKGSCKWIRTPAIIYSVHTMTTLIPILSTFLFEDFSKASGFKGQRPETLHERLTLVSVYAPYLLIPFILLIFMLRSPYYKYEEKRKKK

| Structure (SMILES) | Ratio σ2/σ1 (σ1 receptors [1]) | Ki (σ2 receptors; [5]) | Ki (σ1 receptors [2]) | Ki (σ2 receptors) | effect of NE-100 by itself on dizocilpine-induced deficits, Y-maze test (Male Swiss mice [3]) | effect of NE-100 by itself on dizocilpine-induced deficits, passive avoidance test (Male Swiss mice [4]) |
| --- | --- | --- | --- | --- | --- | --- |
| O=C(NCCCNCN1Cc2ccccc2C1)c1ccc(Cl)cc1 [Compound 3.1.15] |  |  | 19 nM |  |  |  |
| CN(CCNC(=O)c1ccc(C#N)cc1)Cc1ccccc1 [Compound 3.1.36, N-(2-(benzyl(methyl)amino)ethyl)-4-cyanobenzamide] |  | 170 nM | 1.2 nM |  |  |  |
| CN(CCNC(=O)c1ccc([N+](=O)[O-])cc1)Cc1ccccc1 [Compound 3.1.37, N-(2-(benzyl(methyl)amino)ethyl)-4-nitrobenzamide] |  | 1400 nM | 3.6 nM |  |  |  |
| CN(CCC(=O)NCc1ccc(Cl)cc1)Cc1ccccc1 [Compound 3.4a, N-(4-chlorobenzyl)-3-(benzylmethylamino)propanamide] | 241 |  | 1.7 nM | 410 nM |  |  |
| CN(CCC(=O)NCc1ccc([N+](=O)[O-])cc1)Cc1ccccc1 [Compound 3.4b, N-(4-Nitrobenzyl)-3-(benzylmethylamino)propanamide] |  |  | 1.3 to 3.6 nM and 2.3 nM | 6500 nM |  |  |
| CN(CCC(=O)NCc1ccc(C#N)cc1)Cc1ccccc1 [Compound 3.4c, N-(4-Cyanobenzyl)-3-(benzylmethylamino)propanamide] | 321 |  | 5.6 nM | 1800 nM |  |  |
| CN(CCC(=O)NCc1cccc(Cl)c1)Cc1ccccc1 [Compound 3.4e, N-(3-Chlorobenzyl)-3-(benzylmethylamino)propanamide] | 317 |  | 0.63 nM | 200 nM |  |  |
| CCCN(CCC)CCc1ccc(OC)c(OCCc2ccccc2)c1.Cl [NE-100, reference compound] |  |  |  |  | devoid of effect by itself | devoid of effect by itself |

Now from value to compound, other results behind:

| Ratio σ2/σ1 (σ1 receptors [1]) | Ki (σ2 receptors; [5]) | Ki (σ1 receptors [2]) | Ki (σ2 receptors) | Structure (SMILES) | effect of NE-100 by itself on dizocilpine-induced deficits, Y-maze test (Male Swiss mice [3]) | effect of NE-100 by itself on dizocilpine-induced deficits, passive avoidance test (Male Swiss mice [4]) |
| --- | --- | --- | --- | --- | --- | --- |
| 24 | 470 nM | 20 nM |  | CN(CCCNC(=O)c1ccc(F)cc1)Cc1ccccc1 [Compound 3.1.6, N-[3-(benzylmethylamino)propyl]-4-fluorobenzamide] |  |  |
| 34 | 340 nM | 10 nM |  | CN(CCCNC(=O)c1cccc(Cl)c1)Cc1ccccc1 [Compound 3.1.8, N-[3-(benzylmethylamino)propyl]-3-chlorobenzamide] |  |  |
|  | 850 nM |  |  | CN(CCNC(=O)c1ccc(Cl)cc1)Cc1ccccc1 [Compound 3.1.9, N-[3-(2-(N-methylbenzyl)amino)ethyl]-4-chlorobenzamide] |  |  |
| 47 | 200 nM | 4.3 nM |  | CN(CCCNC(=O)c1ccc(Cl)cc1)CCc1ccccc1 [Compound 3.1.12, N-[3-(N-methyl-2-phenylethylamino)propyl]-4-chlorobenzamide] |  |  |
| 90 | 350 nM | 3.9 nM |  | CN(CCCNC(=O)c1cccc(Br)c1)Cc1ccccc1 [Compound 3.1.21, N-[3-(benzylmethylamino)propyl]-3-bromobenzamide] |  |  |
| 238 | 310 nM | 1.3 to 3.6 nM and 1.3 nM |  | CN(CCCNC(=O)c1ccc(Cl)cc1Cl)Cc1ccccc1 [Compound 3.1.24, N-[3-(benzylmethylamino)propyl]-2,4-dichlorobenzamide] |  |  |
| 2 | 48 nM | 23 nM |  | CN(CCCNC(=O)c1cc(Cl)cc(Cl)c1)Cc1ccccc1 [Compound 3.1.26, N-[3-(benzylmethylamino)propyl]-3,5-dichlorobenzamide] |  |  |
|  |  | 2.9 nM |  | CN(CCCNC(=O)c1ccc(Br)cc1F)Cc1ccccc1 [Compound 3.1.27, N-[3-(benzylmethylamino)propyl]-4-bromo-2-fluorobenzamide] |  |  |
| 17 | 110 nM | 6.5 nM |  | CN(CCNC(=O)c1ccc(Cl)cc1Cl)Cc1ccccc1 [Compound 3.1.34, N-(2-(benzyl(methyl)amino)ethyl)-2,4-dichlorobenzamide] |  |  |
| 52 |  | 2.3 nM | 120 nM | CN(CCC(=O)NCc1ccc(Cl)cc1Cl)Cc1ccccc1 [Compound 3.4d, N-(2,4-Dichlorobenzyl)-3-(benzylmethylamino)propanamide] |  |  |
